# Laboratory results as given in publication PMC7960626, “Phase I study assessing the mass balance, pharmacokinetics, and excretion of [^14C]-pevonedistat, a NEDD8-activating enzyme inhibitor in patients with advanced solid tumors” (Investigational New Drugs, 2020).
# Assay: Safety (TEAEs) of pevonedistat days 1, 3, 5 plus carboplatin/paclitaxel or docetaxel in 3-week cycles (part B)
# Format: in vivo, human
# Conditions: for On-study deaths, patients: part B, Total (N = 7)
# Experimental: This was a two-part (A and B), open-label, multicenter, mass balance, distribution, metabolism, excretion (DME) study in adult patients with advanced solid tumors. In part A, patients received a single IV infusion of [^14C]-pevonedistat 25 mg/m^2 (containing approximately 60–85 µCi, or 2.22–3.145 MBq, of total radioactivity) at a single center (Duna Medical Center, Budapest, Hungary). Patients were required to stay at the part A study site for approximately 8 days or until the discharge criteria were met, with a maximum estimated confinement period of 9–14 days. Upon completion of part A, patients had the option to participate in part B at Medical Center Hungarian Defense Forces, Budapest, Hungary. In part B, patients received treatment in 3-week cycles with either: pevonedistat 20 mg/m^2 on days 1, 3, and 5 plus carboplatin AUC5 and paclitaxel 175 mg/m^2 on day 1; or pevonedistat 25 mg/m^2 on days 1, 3, and 5 plus docetaxel 75 mg/m^2 on day 1. Treatment was administered for 12 cycles or until discontinuation criteria were met.
# Blood samples were collected for total radioactivity and PK assessments in whole blood and plasma at prespecified time points (pre dose [within 1 h before the start of the pevonedistat infusion], end of infusion, then 0.5, 1, 2, 3, 4, 8, 12, 24, 48, 72, 96, 120, 144 and 168 hours post dose). Complete urinary and fecal output were collected for analysis of PK (urine) and total radioactivity (urine and feces) throughout the confinement period until discharge criteria were met. Bioanalytical assay methods are shown in the Supplementary Methods. Safety was assessed by incidence and severity of TEAEs, vital signs, physical examinations, electrocardiograms, and clinical laboratory tests, and toxicities were graded according to the National Cancer Institute Common Terminology Criteria for Adverse Events (NCI CTCAE), version 4.03. In part B, disease assessments were conducted using radiological evaluations (computed tomography [CT] scan or magnetic resonance imaging [MRI], as clinically indicated).
# PK data were summarized using descriptive statistics, and the PK and mass balance parameters described in Supplementary Table S1 were calculated by non-compartmental analysis for each individual patient. Safety was assessed in all patients who received at least one dose of pevonedistat, and TEAEs were coded according to the Medical Dictionary for Regulatory Activities (MedDRA), version 20.0. Analysis of efficacy in part B was descriptive; disease response was assessed in all patients who received at least one dose of pevonedistat, had measurable disease (per entry criteria for part B), and had at least one post-baseline disease assessment. Response assessment was done by the investigator using Response Evaluation Criteria in Solid Tumors (RECIST) version 1.1. SAS version 9.4 was used for all statistical analyses.
# [1] = human, in vivo, 12 3-week cycles
smiles,measurement,setting,value
NS(=O)(=O)OC[C@@H]1C[C@@H](n2ccc3c(N[C@H]4CCc5ccccc54)ncnc32)C[C@@H]1O [Pevonedistat],"Abdominal distension, All Grades","human, in vivo",1 (14.3) n (%)
same,"Abdominal distension, Grade ≥ 3","human, in vivo",0 n (%)
same,"Abdominal pain upper, All Grades","human, in vivo",1 (14.3) n (%)
same,"Abdominal pain upper, Grade ≥ 3","human, in vivo",0 n (%)
same,"Abdominal pain, All Grades","human, in vivo",1 (14.3) n (%)
same,"Abdominal pain, Grade ≥ 3","human, in vivo",0 n (%)
same,"Alopecia, All Grades","human, in vivo",1 (14.3) n (%)
same,"Alopecia, Grade ≥ 3","human, in vivo",0 n (%)
same,"Arthralgia, All Grades","human, in vivo",1 (14.3) n (%)
same,"Arthralgia, Grade ≥ 3","human, in vivo",0 n (%)
same,"Asthenia, All Grades","human, in vivo",3 patients (42.9%) n (%)
same,"Back pain, All Grades","human, in vivo",1 (14.3) n (%)
same,"Back pain, Grade ≥ 3","human, in vivo",0 n (%)
same,"Blood bilirubin increased, All Grades","human, in vivo",1 (14.3) n (%)
same,"Blood bilirubin increased, Grade ≥ 3","human, in vivo",0 n (%)
same,"Blood creatinine increased, All Grades","human, in vivo",1 (14.3) n (%)
same,"Blood creatinine increased, Grade ≥ 3","human, in vivo",0 n (%)
same,"Blood urea increased, All Grades","human, in vivo",1 (14.3) n (%)
same,"Blood urea increased, Grade ≥ 3","human, in vivo",0 n (%)
same,"Bone pain, All Grades","human, in vivo",1 (14.3) n (%)
same,"Bone pain, Grade ≥ 3","human, in vivo",0 n (%)
same,"Chest pain, All Grades","human, in vivo",1 (14.3) n (%)
same,"Chest pain, Grade ≥ 3","human, in vivo",0 n (%)
same,"Chills, All Grades","human, in vivo",1 (14.3) n (%)
same,"Chills, Grade ≥ 3","human, in vivo",0 n (%)
same,"Conjunctival hemorrhage, All Grades","human, in vivo",1 (14.3) n (%)
same,"Conjunctival hemorrhage, Grade ≥ 3","human, in vivo",0 n (%)
same,"Diarrhea, All Grades","human, in vivo",3 patients (42.9%) n (%)
same,"Dyspnea, All Grades","human, in vivo",1 (14.3) n (%)
same,"Dyspnea, Grade ≥ 3","human, in vivo",0 n (%)
same,"Edema peripheral, All Grades","human, in vivo",1 (14.3) n (%)
same,"Edema peripheral, Grade ≥ 3","human, in vivo",0 n (%)
same,"Fibrosarcoma, All Grades","human, in vivo",1 (14.3) n (%)
same,"Fibrosarcoma, Grade ≥ 3","human, in vivo",1 (14.3) n (%)
same,"General physical health deterioration, All Grades","human, in vivo",1 (14.3) n (%)
same,"General physical health deterioration, Grade ≥ 3","human, in vivo",1 (14.3) n (%)
same,Grade ≥ 3 drug-related decreased platelet count,"human, in vivo",1 patient
same,Grade ≥ 3 drug-related increased ALT and AST,"human, in vivo",1 patient
same,"Leukocytosis, All Grades","human, in vivo",1 (14.3) n (%)
same,"Leukocytosis, Grade ≥ 3","human, in vivo",0 n (%)
same,"Leukopenia, All Grades","human, in vivo",1 (14.3) n (%)
same,"Leukopenia, Grade ≥ 3","human, in vivo",0 n (%)
same,"Mueller’s mixed tumor, All Grades","human, in vivo",1 (14.3) n (%)
same,"Mueller’s mixed tumor, Grade ≥ 3","human, in vivo",0 n (%)
same,"Nausea, All Grades","human, in vivo",3 patients (42.9%) n (%)
same,"Pain, Grade ≥ 3","human, in vivo",0 n (%)
same,"Peripheral venous disease, All Grades","human, in vivo",1 (14.3) n (%)
same,"Peripheral venous disease, Grade ≥ 3","human, in vivo",0 n (%)
same,"Platelet count decreased, All Grades","human, in vivo",1 (14.3) n (%)
same,"Platelet count decreased, Grade ≥ 3","human, in vivo",1 (14.3) n (%)
same,"Pneumonia, All Grades","human, in vivo",1 (14.3) n (%)
same,"Pneumonia, Grade ≥ 3","human, in vivo",1 (14.3) n (%)
same,"Pyrexia, All Grades","human, in vivo",2 (28.6) n (%)
same,"Pyrexia, Grade ≥ 3","human, in vivo",0 n (%)
same,"Rash, All Grades","human, in vivo",1 (14.3) n (%)
same,"Rash, Grade ≥ 3","human, in vivo",0 n (%)
same,"Serious TEAEs, patients","human, in vivo",Three patients (42.9%) n (%)
same,"Spinal compression fracture, All Grades","human, in vivo",1 (14.3) n (%)
same,"Spinal compression fracture, Grade ≥ 3","human, in vivo",0 n (%)
same,"Swelling, All Grades","human, in vivo",1 (14.3) n (%)
same,"Swelling, Grade ≥ 3","human, in vivo",0 n (%)
same,"TEAEs, patients","human, in vivo",7 n (%)
same,"TEAEs: Drug-related (any drug of the combination), patients","human, in vivo",6 patients (85.7%) n (%)
same,"TEAEs: Grade ≥ 3, patients","human, in vivo",Four patients (57.1%) n (%)
same,"TEAEs: Grade ≥ 3 drug-related, patients","human, in vivo",2 n (%)
same,"Upper respiratory tract infection, All Grades","human, in vivo",1 (14.3) n (%)
same,"Upper respiratory tract infection, Grade ≥ 3","human, in vivo",0 n (%)
same,"Vomiting, All Grades","human, in vivo",4 patients (57.1%) n (%)
same,"Weight decreased, All Grades","human, in vivo",1 (14.3) n (%)
same,"Weight decreased, Grade ≥ 3","human, in vivo",0 n (%)
same,"ALT increased, All Grades",[1],2 (28.6) n (%)
same,"ALT increased, Grade ≥ 3",[1],1 (14.3) n (%)
same,"AST increased, All Grades",[1],2 (28.6) n (%)
same,"AST increased, Grade ≥ 3",[1],1 (14.3) n (%)
same,"Anemia, All Grades",[1],2 (28.6) n (%)
same,"Anemia, Grade ≥ 3",[1],0 n (%)
same,"Asthenia, All Grades",[1],3 (42.9) n (%)
same,"Asthenia, Grade ≥ 3",[1],0 n (%)
same,"Diarrhea, All Grades",[1],3 (42.9) n (%)
same,"Diarrhea, Grade ≥ 3",[1],0 n (%)
same,"Fatigue, All Grades",[1],2 (28.6) n (%)
same,"Fatigue, Grade ≥ 3",[1],0 n (%)
same,"Nausea, All Grades",[1],3 (42.9) n (%)
same,"Nausea, Grade ≥ 3",[1],0 n (%)
same,"Pain, All Grades",[1],2 (28.6) n (%)
same,"Serious TEAEs, patients",[1],3 (42.9) n (%)
same,"Serious TEAEs: Drug-related, patients",[1],0 n (%)
same,"Serious TEAEs: Resulting in study discontinuation, patients",[1],1 (14.3) n (%)
same,"TEAEs, patients",[1],7 (100.0) n (%)
same,"TEAEs: Drug-related (any drug of the combination), patients",[1],6 (85.7) n (%)
same,"TEAEs: Grade ≥ 3, patients",[1],4 (57.1) n (%)
same,"TEAEs: Grade ≥ 3 drug-related, patients",[1],2 (28.6) n (%)
same,"TEAEs: Resulting in study drug discontinuation, patients",[1],1 (14.3) n (%)
same,"Thrombocytopenia, All Grades",[1],2 (28.6) n (%)
same,"Thrombocytopenia, Grade ≥ 3",[1],0 n (%)
same,"Vomiting, All Grades",[1],4 (57.1) n (%)
same,"Vomiting, Grade ≥ 3",[1],0 n (%)
same,"Oral herpes, All Grades","human, in vivo, po",1 (14.3) n (%)
same,"Oral herpes, Grade ≥ 3","human, in vivo, po",0 n (%)
same,"Serious TEAEs: Drug-related, patients",in vivo,none of which were considered related to treatment
same,"On-study deaths, patients",,2 (28.6) n (%)
same,"On-study deaths, patients",listed as pevonedistat,Two
